We go through three compounds from patent US12479847B2 (DANA-FARBER CANCER INSTITUTE, INC., priority 2019, dated 2025).

Common to all, as to experiment: KINOMEscan (ScanMAX) kinase profiling
Common to all, as to type: binding

Experiment [1] deals with T1, panel of 468 kinases (Homo sapiens, UniProt Q9BVS4).
T1 construct: purchased KINOMEscan (ScanMAX) service
The conditions noted are these: RIOK2; 1 μM; read-out: % control. How it is done:
(§1) The kinase selectivity of inventive compounds 12, 75, and 77 was evaluated by KINOMEscan®. KINOMEscan® (ScanMAX™) analysis was performed against a near comprehensive panel of 468 kinases. The control percentage (% control) for inventive compounds at 1 μM in DMSO was determined by Equation 1: % control=(inventive compound−positive control)/(negative control−positive control)×100%, Equation 1
(§2) wherein the positive control is a compound with a % control value of 0% relative light units (RLU), and the negative control (i.e., DMSO) has % control value of 100% RLU. The enzyme selectivity in the present invention is defined as follows: inventive compounds are considered active for an enzyme when the observed % control is less than 35% (<35%).

For experiment [2], the target named is T2, panel of 468 kinases (Homo sapiens, UniProt Q9H093).
T2 construct: purchased KINOMEscan (ScanMAX) service
T2 sequence (Q9H093 1-628): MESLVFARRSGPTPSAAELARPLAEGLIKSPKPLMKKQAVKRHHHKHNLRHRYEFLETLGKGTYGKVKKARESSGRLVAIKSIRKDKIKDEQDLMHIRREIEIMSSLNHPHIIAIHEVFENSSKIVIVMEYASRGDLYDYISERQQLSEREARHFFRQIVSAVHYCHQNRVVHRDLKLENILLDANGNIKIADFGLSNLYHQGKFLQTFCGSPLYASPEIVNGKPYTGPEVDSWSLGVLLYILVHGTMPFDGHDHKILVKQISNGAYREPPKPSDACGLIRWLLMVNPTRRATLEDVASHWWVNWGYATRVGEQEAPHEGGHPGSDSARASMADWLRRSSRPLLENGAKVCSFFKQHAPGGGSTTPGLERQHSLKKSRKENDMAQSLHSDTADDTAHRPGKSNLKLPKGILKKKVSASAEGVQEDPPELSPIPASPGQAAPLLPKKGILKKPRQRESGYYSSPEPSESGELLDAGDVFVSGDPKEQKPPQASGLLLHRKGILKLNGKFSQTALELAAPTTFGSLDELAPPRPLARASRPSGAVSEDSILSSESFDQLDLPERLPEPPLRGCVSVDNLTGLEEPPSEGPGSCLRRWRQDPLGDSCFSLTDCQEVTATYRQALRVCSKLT
The following applies: SNARK; 1 μM; read-out: % control. The method, then: as §1, §2

The target of experiment [3] is T3, panel of 468 kinases (Homo sapiens, UniProt Q05397).
T3 construct: purchased KINOMEscan (ScanMAX) service
The following applies: FAK; 1 μM; read-out: % control. How it is done: as §1, §2

Experiment [4] concerns the target T4, panel of 468 kinases (Homo sapiens, UniProt Q92918).
T4 construct: purchased KINOMEscan (ScanMAX) service
The following applies: HPK1; 1 μM; read-out: % control. The method, then:
as §1, §2

In experiment [5] the target is T5, panel of 468 kinases (Homo sapiens, UniProt Q9UQB9).
T5 construct: purchased KINOMEscan (ScanMAX) service
T5 sequence (Q9UQB9 1-309): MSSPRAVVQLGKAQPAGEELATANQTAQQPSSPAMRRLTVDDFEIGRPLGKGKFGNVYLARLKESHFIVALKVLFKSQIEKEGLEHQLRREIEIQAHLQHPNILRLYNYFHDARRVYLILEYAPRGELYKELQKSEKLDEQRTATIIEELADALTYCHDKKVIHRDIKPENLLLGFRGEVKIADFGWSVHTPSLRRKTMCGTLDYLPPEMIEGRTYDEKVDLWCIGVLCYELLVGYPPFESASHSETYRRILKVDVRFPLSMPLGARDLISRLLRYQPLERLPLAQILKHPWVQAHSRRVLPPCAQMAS
The conditions noted are these: AURKC; 1 μM; read-out: % control. How it is done: as §1, §2

Experiment [6] addresses T6, panel of 468 kinases (Homo sapiens, UniProt O14757).
T6 construct: purchased KINOMEscan (ScanMAX) service
T6 sequence (O14757 1-476): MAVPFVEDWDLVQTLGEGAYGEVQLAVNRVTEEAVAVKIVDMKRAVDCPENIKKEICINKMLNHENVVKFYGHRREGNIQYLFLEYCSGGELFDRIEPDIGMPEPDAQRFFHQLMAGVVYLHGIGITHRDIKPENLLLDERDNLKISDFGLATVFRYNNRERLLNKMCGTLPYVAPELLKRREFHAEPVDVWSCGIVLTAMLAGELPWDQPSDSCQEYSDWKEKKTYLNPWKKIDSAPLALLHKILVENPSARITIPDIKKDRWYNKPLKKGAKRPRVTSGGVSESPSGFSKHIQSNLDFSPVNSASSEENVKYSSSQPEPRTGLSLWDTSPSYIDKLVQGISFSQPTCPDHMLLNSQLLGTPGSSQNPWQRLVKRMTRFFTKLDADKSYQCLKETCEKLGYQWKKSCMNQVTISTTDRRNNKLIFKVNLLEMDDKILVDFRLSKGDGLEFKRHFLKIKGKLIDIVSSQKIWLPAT
The conditions noted are these: CHEK1; 1 μM; read-out: % control. How it is done:
as §1, §2

The target in experiment [7] is T7, panel of 468 kinases (Homo sapiens, UniProt P49137).
T7 construct: purchased KINOMEscan (ScanMAX) service
The following applies: MAPKAPK2; 1 μM; read-out: % control. The method, then:
as §1, §2

For experiment [8], the target named is T8, panel of 468 kinases (Homo sapiens, UniProt O60674).
T8 construct: purchased KINOMEscan (ScanMAX) service
The following applies: JAK2(JH1domain-catalytic); 1 μM; read-out: % control. How it is done:
as §1, §2

The structures appear in SMILES notation.

T7 sequence (P49137 whole entry): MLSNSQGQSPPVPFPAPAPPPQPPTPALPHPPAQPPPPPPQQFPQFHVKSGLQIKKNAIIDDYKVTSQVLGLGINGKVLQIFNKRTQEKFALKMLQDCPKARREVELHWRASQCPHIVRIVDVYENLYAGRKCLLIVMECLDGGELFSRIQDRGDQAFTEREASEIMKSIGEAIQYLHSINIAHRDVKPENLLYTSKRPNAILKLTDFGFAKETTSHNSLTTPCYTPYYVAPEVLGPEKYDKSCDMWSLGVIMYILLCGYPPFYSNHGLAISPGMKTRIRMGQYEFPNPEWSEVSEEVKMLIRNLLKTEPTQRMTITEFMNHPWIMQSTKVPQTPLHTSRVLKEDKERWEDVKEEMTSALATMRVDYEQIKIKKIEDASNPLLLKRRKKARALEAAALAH
T4 sequence (Q92918 whole entry): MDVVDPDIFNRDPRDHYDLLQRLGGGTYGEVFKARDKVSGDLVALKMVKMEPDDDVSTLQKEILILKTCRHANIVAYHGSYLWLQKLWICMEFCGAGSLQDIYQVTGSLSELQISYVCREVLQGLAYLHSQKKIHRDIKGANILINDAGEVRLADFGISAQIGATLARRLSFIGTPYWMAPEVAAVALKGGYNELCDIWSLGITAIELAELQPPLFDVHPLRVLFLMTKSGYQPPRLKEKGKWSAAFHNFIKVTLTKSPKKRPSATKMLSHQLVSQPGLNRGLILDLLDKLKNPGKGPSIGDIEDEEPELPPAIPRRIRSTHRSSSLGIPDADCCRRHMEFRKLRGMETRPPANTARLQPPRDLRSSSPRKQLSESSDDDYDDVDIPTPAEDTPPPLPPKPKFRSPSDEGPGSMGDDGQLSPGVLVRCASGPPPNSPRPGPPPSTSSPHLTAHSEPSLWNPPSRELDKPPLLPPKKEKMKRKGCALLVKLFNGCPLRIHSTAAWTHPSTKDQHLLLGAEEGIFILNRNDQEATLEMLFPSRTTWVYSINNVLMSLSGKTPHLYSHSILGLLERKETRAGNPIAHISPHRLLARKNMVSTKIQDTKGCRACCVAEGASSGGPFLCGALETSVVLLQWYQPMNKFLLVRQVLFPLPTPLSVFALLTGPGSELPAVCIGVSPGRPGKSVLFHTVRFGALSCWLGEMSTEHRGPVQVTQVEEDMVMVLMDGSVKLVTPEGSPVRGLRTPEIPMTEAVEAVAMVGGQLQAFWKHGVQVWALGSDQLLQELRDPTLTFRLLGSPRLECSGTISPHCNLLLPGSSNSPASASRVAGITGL
T1 sequence (Q9BVS4 whole entry): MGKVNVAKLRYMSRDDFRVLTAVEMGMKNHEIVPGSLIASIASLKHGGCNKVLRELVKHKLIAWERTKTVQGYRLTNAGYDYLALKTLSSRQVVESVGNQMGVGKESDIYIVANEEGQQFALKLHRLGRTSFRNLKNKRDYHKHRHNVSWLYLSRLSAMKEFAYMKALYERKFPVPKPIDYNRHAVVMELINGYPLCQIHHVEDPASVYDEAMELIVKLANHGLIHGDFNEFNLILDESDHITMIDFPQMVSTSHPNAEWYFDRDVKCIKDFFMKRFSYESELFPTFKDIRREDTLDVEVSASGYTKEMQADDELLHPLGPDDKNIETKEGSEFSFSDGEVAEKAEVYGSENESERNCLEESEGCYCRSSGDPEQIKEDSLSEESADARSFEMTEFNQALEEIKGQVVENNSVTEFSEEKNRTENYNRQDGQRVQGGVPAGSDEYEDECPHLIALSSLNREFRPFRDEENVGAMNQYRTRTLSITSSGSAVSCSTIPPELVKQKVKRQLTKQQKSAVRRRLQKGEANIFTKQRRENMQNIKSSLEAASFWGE
T3 sequence (Q05397 whole entry): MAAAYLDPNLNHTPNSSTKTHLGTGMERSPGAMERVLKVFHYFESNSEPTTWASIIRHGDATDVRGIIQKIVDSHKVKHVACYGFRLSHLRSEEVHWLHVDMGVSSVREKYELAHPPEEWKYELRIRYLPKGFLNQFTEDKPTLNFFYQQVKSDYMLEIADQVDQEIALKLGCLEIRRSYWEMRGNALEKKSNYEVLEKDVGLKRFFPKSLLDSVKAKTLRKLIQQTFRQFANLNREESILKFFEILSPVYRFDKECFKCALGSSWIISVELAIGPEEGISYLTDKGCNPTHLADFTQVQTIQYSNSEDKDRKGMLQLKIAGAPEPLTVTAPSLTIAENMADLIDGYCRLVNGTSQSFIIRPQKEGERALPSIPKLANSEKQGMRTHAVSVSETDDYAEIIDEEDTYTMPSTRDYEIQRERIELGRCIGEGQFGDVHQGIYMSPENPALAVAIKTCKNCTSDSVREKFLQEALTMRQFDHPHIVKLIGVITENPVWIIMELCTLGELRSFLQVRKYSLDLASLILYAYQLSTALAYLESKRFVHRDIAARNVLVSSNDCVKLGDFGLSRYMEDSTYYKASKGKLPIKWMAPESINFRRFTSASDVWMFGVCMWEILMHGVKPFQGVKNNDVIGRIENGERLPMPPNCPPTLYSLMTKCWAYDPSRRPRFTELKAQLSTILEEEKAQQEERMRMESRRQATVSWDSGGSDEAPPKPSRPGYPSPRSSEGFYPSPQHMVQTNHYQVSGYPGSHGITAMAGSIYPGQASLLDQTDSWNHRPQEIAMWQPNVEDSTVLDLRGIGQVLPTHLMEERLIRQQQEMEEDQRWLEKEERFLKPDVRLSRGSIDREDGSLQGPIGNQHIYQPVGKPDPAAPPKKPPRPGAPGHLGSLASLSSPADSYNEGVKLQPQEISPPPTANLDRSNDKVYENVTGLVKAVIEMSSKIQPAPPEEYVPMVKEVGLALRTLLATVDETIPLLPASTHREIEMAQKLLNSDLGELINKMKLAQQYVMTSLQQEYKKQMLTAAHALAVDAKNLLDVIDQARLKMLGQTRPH
T8 sequence (O60674 whole entry): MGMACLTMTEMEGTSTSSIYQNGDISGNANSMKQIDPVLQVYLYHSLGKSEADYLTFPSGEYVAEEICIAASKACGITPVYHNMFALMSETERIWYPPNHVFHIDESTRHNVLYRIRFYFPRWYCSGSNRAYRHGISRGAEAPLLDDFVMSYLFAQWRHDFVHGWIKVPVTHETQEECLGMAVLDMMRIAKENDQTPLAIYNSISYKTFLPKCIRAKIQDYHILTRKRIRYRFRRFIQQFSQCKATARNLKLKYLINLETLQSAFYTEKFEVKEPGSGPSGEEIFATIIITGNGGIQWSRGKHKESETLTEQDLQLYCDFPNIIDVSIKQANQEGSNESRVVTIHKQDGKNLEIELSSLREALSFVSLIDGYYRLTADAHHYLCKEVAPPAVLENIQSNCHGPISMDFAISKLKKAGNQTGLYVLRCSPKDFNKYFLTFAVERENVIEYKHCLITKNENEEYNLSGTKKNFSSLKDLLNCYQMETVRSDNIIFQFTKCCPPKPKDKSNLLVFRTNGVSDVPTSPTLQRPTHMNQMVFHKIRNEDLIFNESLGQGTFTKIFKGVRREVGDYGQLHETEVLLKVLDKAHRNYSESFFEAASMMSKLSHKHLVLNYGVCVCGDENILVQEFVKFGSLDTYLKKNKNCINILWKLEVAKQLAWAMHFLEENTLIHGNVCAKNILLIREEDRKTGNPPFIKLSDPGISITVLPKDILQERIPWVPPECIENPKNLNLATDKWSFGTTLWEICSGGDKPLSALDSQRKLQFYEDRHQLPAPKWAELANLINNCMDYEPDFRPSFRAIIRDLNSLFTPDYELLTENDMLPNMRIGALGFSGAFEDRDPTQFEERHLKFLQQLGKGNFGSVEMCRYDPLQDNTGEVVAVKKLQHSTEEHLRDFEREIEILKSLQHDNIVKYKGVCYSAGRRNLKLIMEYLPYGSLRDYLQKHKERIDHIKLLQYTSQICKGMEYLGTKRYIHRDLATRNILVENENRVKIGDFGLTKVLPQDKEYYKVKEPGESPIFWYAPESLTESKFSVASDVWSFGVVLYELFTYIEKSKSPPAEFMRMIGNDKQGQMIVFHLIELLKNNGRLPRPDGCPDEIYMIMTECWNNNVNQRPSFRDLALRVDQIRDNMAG

With `CNc1nc(Nc2ccc(C(=O)N3CCC(N4CCOCC4)CC3)c3c2OCO3)nc2[nH]cc(Cl)c12` [Compound 75, (7-((5-chloro-4-(methylamino)-7H-pyrrolo[2,3-d]pyrimidin-2-yl)amino)benzo[d][1,3]dioxol-4-yl)(4-morpholinopiperidin-1-yl)methanone], the remaining binding at 1 µM at panel of 468 kinases [1] came out at 53%; on panel of 468 kinases [2], 19%; on panel of 468 kinases [3] it was 39%; on panel of 468 kinases [4], 47%; at panel of 468 kinases [5], 56%; at panel of 468 kinases [6] it was 67%. The remaining binding at 1 µM on panel of 468 kinases [7] came out at 31%; on panel of 468 kinases [8] it was 24%.

As to `CNc1nc(Nc2ccc(P3(=O)CCN(C4CCOCC4)CC3)cc2OC)nc2[nH]cc(Cl)c12` [Compound 77, 4-(4-((5-chloro-4-(methylamino)-7H-pyrrolo[2,3-d]pyrimidin-2-yl)amino)-3-methoxyphenyl)-1-(tetrahydro-2H-pyran-4-yl)-1,4-azaphosphinane 4-oxide], the remaining binding at 1 µM on panel of 468 kinases [1] amounted to 78%; at panel of 468 kinases [2] it was 70%; on panel of 468 kinases [3], 33%; on panel of 468 kinases [4], 97%; on panel of 468 kinases [5], 100%; on panel of 468 kinases [6] it was 100%. Besides, the remaining binding at 1 µM at panel of 468 kinases [7] is 100%; on panel of 468 kinases [8], 58%.

In the case of `CNc1nc(Nc2ccc(S(=O)(=O)N3CCC(N4CCOCC4)CC3)cc2OC)nc2[nH]cc(Cl)c12` [Compound 12, 5-chloro-N2-(2-methoxy-4-((4-morpholinopiperidin-1-yl)sulfonyl)phenyl)-N4-methyl-7H-pyrrolo[2,3-d]pyrimidine-2,4-diamine], the remaining binding at 1 µM turned out to be 94% on panel of 468 kinases [1]; 75% on panel of 468 kinases [2]; 19% on panel of 468 kinases [3]; 78% on panel of 468 kinases [4]; 100% at panel of 468 kinases [5]; 100% at panel of 468 kinases [6]. In addition, the remaining binding at 1 µM on panel of 468 kinases [7] stood at 72%; on panel of 468 kinases [8] it was 78%.
